Experimental data reported in PubChem BioAssay AID720611 (Broad Institute, 2013).

Tested on: SNB-19 viability, CellTiter-Glo ATP luminescence, 8-48 h
Assay: cytotoxicity in SNB-19 cells – cell-based, CellTiter-Glo ATP luminescence, 8-48 h, dry powder, mechanism study for HRAS target identification, late-stage follow-up (AID 720611)

| SMILES | AC50 (measured here: 8 h treatment) | AC50 (measured here: 24 h treatment) | AC50 (measured here: 48 h treatment) |
| --- | --- | --- | --- |
| C#CCCCC(=O)NCCOCCOCCOc1ccc(N(C(=O)CCl)C(C(=O)NCCc2ccccc2)c2cccs2)cc1Cl (centres undefined) | 5750 nM | 4270 nM | 3600 nM |
| CC(C)(C)OC(=O)NCCOCCOCCOc1ccc(N(C(=O)CCl)C(C(=O)NCCc2ccccc2)c2cccs2)cc1Cl (centres undefined) | 1410 nM | 2500 nM | 1450 nM |
| COc1ccc(N(C(=O)CCl)C(C(=O)NCCc2ccccc2)c2cccs2)cc1Cl (centres undefined) | 978 nM | 1300 nM | 1250 nM |
